Assay results as given in patent US20240247080A1, “GLP1/GIP/NPY2 RECEPTOR TRIPLE AGONISTS” (Boehringer Ingelheim International GmbH, priority 2022, published 2024).
pEC50: −log10 of the molar value. Where two headings read alike, the source gives them in different places. Starred links: 1 amine or outer side, 2 acyl side, 3 side chain; linkers in the order of their positions; H or OH if unused. Positions of bridges follow the written chain, without caps; N, C: chain ends. Non-standard residues stand in square brackets, D forms with d. Groups on a side chain read outwards from the residue. Chains are numbered I, II in the order given. No end group written: not given here. *: point of attachment. C20 diacid = O=C(O)CCCCCCCCCCCCCCCCCCC(=O)*; C18 diacid = O=C(O)CCCCCCCCCCCCCCCCC(=O)*; γGlu = O=C(O)[C@H](CCC(=O)[*:2])N[*:1]; εLys = N[C@@H](CCCCN[*:1])C(=O)[*:2]; AEEA = NCCOCCOCC(=O)O; Aib = CC(C)(N)C(=O)O; Ahx = NCCCCCC(=O)O

How the values were obtained:
Format in all cases: cell-based
Details in all cases: CreLuc reporter gene assay
hGLP1R = biological target: T1, hGLP1R (Homo sapiens, UniProt P43220); test: hGLP1R CreLuc reporter gene assay in 0.5% and 100% plasma
T1 construct: expressed in transfected cells; host or cells: HEK-293 cells carrying a CRE-luciferase reporter gene
T1 sequence (P43220 24-463): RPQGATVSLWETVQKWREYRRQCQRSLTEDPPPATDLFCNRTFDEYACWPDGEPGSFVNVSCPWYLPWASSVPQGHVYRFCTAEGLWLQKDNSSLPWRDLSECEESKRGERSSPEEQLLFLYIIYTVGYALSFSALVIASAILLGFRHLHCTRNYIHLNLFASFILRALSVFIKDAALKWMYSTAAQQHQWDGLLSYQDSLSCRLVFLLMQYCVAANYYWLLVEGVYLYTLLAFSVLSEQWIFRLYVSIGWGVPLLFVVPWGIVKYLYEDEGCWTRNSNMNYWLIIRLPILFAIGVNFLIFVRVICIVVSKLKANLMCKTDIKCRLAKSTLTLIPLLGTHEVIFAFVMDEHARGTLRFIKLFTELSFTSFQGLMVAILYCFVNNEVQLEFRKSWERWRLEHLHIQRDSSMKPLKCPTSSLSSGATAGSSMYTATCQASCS
Summary of the method: (§1)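 HEK cells (GLP-1R, NPY2R) or CHO cells (GIPR) carrying a CRE-luciferase reporter, incubated 4 h at 37 °C with peptides in HBSS/20 mM HEPES pH 7.4 plus 0.5% human plasma, or in 100% plasma. Luminescence read; EC50 from 8-point variable-slope sigmoid fits.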

hNPY2R = biological target: T2, hNPY2R (Homo sapiens, UniProt P49146); test: hNPY2R CreLuc reporter gene assay in 0.5% and 100% plasma
T2 construct: expressed in transfected cells; host or cells: HEK-293 cells carrying a CRE-luciferase reporter gene
T2 sequence (P49146 1-381): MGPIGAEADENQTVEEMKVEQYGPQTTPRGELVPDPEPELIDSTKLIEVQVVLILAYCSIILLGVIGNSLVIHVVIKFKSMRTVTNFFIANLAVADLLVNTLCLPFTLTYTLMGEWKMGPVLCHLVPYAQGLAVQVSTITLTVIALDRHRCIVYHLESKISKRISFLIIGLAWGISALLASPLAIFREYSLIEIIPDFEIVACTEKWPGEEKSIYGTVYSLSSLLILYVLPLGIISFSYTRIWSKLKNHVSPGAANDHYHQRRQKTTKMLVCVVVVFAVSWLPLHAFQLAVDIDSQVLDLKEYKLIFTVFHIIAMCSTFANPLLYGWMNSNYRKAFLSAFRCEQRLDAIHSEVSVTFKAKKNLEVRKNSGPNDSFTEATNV
Summary of the method: as §1

hGIPR = biological target: T3, hGIPR (Homo sapiens, UniProt P48546); test: hGIPR CreLuc reporter gene assay in 0.5% and 100% plasma
T3 construct: expressed in transfected cells; host or cells: CHO cells carrying a CRE-luciferase reporter gene
T3 sequence (P48546 22-466): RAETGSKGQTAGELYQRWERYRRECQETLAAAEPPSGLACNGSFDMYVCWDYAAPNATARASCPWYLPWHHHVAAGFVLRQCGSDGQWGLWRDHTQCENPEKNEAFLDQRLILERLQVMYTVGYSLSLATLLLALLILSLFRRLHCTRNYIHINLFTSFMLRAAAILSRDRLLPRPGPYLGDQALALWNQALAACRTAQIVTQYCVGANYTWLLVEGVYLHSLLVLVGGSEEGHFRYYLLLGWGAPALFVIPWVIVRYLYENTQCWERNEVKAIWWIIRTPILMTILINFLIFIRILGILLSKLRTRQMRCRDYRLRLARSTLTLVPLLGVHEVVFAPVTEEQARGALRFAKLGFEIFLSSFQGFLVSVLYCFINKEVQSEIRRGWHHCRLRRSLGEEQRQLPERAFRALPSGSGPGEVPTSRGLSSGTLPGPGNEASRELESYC
Summary of the method: as §1

[1] = 0.5% human plasma, read-out: hGLP1R 0.5% hP
[2] = 0.5% human plasma, read-out: hNPY2R 0.5% hP
[3] = 100% human plasma, read-out: hNPY2R 100% hP
[4] = 0.5% human plasma, read-out: hGIPR 0.5% hP
[5] = 100% human plasma, read-out: hGIPR 100% hP
[6] = 100% human plasma, read-out: hGLP1R 100% hP

Substance | pEC50 (hGLP1R; [1]) | pEC50 (hNPY2R; [2]) | pEC50 (hNPY2R; [3]) | pEC50 (hGIPR; [4]) | pEC50 (hGIPR; [5]) | pEC50 (hGLP1R; [6])
Y[Aib]EGTFTSDYSI[Aib]LEKQAQ[Aib]AFVEWLIK([AEEA-AEEA-γGlu-γGlu-γGlu-C18 diacid])GGPSEGASLRHYYNWLTRQRY-NH2 [Compound 299, Y-Aib-E-G-T-F-T-S-D-Y-S-I-Aib-L-E-K-Q-A-Q-Aib-A-F-V-E-W-L-I-K(1,3)-GGPSEGASLRHYYNWLTRQRY-NH2.C18DA-gGlu-gGlu-gGlu-OEG-OEG(1,2)] | 10.10 | 7.96 | 7.50 | 9.40 | 9.15 | 
H-Y[Aib]EGTFTSDYSI[Aib]LEEQAQ[Aib]AFVEWLIK([εLys-AEEA-AEEA-γGlu-γGlu-γGlu-γGlu-C20 diacid])GGPSSGASLRHYYNWLTRQRY-NH2 [Compound 100, Y-Aib-E-G-T-F-T-S-D-Y-S-I-Aib-L-E-E-Q-A-Q-Aib-A-F-V-E-W-L-I-K(1,3)-GGPSSGASLRHYYNWLTRQRY-NH2.C20DA-gGlu-gGlu-glu-gGlu-OEG-OEG-eLys(1,2)] | 9.92 | 7.95 |  | 10.00 | 9.06 | 8.66
H-Y[Aib]EGTFTSDYSI[Aib]LEEQAQ[Aib]AFVEWLIK([εLys-γGlu-γGlu-γGlu-γGlu-C20 diacid])GGPSSGASLRHYYNWLTRQRY-NH2 [Compound 97, Y-Aib-E-G-T-F-T-S-D-Y-S-I-Aib-L-E-E-Q-A-Q-Aib-A-F-V-E-W-L-I-K(1,3)-GGPSSGASLRHYYNWLTRQRY-NH2.C20DA-gGlu-gGlu-gGlu-gGlu-eLys(1,2)] | 9.82 | 7.83 | 7.15 | 9.85 | 9.02 | 
H-Y[Aib]EGTFTSDYSI[Aib]LEKQAQ[Aib]AFVEWLIK([Ahx-γGlu-γGlu-γGlu-γGlu-γGlu-C18 diacid])GGPSSGASLRHYYNWLTRQRY-NH2 [Compound 260, Y-Aib-E-G-T-F-T-S-D-Y-S-I-Aib-L-E-K-Q-A-Q-Aib-A-F-V-E-W-L-I-K(1,3)-GGPSSGASLRHYYNWLTRQRY-NH2.C18DA-gGlu-gGlu-gGlu-gGlu-gGlu-AHX(1,2)] | 9.89 | 7.58 |  | 9.51 |  | 
H-Y[Aib]EGTFTSDYSI[Aib]LEKQAQ[Aib]AFVQWLIK([AEEA-AEEA-γGlu-γGlu-γGlu-γGlu-C18 diacid])GGPESGASLRHYYNWLTRQRY-NH2 [Compound 58, Y-Aib-E-G-T-F-T-S-D-Y-S-I-Aib-L-E-K-Q-A-Q-Aib-A-F-V-Q-W-L-I-K(1,3)-GGPESGASLRHYYNWLTRQRY-NH2.C18DA-gGlu-gGlu-gGlu-gGlu-OEG-OEG(1,2)] | 10.30 | 7.99 |  | 9.62 | 9.51 | 8.70
H-Y[Aib]EGTFTSDYSI[Aib]LEKQAQ[Aib]AFIEWLIK([AEEA-AEEA-γGlu-γGlu-γGlu-γGlu-C20 diacid])GGPSEGASLRHYYNWLTRQRY-NH2 [Compound 231, Y-Aib-E-G-T-F-T-S-D-Y-S-I-Aib-L-E-K-Q-A-Q-Aib-A-F-I-E-W-L-I-K(1,3)-GGPSEGASLRHYYNWLTRQRY-NH2.C20DA-gGlu-gGlu-gGlu-gGlu-OEG-OEG(1,2)] | 9.85 | 7.72 |  | 9.48 | 8.84 | 
H-Y[Aib]EGTFTSDYSI[Aib]LEKQAQ[Aib]AFVEWLIK([AEEA-AEEA-γGlu-γGlu-γGlu-γGlu-C18 diacid])GGPSSGASLRHYYNWLTRQRY-NH2 [Compound 254, Y-Aib-E-G-T-F-T-S-D-Y-S-I-Aib-L-E-K-Q-A-Q-Aib-A-F-V-E-W-L-I-K(1,3)-GGPSSGASLRHYYNWLTRQRY-NH2.C18DA-gGlu-gGlu-gGlu-gGlu-OEG-OEG(1,2)] | 10.15 | 7.75 | 7.51 | 9.66 | 9.20 | 8.77
H-Y[Aib]EGTFTSDYSI[Aib]LEKQAQ[Aib]AFVQWLIK([AEEA-AEEA-Glu-Glu-Glu-C18 diacid])GGPEEGASLRHYYNWLTRQRY-NH2 [Compound 188, Y-Aib-E-G-T-F-T-S-D-Y-S-I-Aib-L-E-K-Q-A-Q-Aib-A-F-V-Q-W-L-I-K(1,3)-GGPEEGASLRHYYNWLTRQRY-NH2.C18DA-E-E-E-OEG-OEG(1,2)] | 9.82 | 7.77 |  | 9.92 |  | 
Y[Aib]EGTFTSDYSI[Aib]LEKQAQ[Aib]AFVQWLIK([AEEA-AEEA-γGlu-γGlu-γGlu-γGlu-γGlu-C18 diacid])GGPSSGASLRHYYNWLTRQRY-NH2 [Compound 167, Y-Aib-E-G-T-F-T-S-D-Y-S-I-Aib-L-E-K-Q-A-Q-Aib-A-F-V-Q-W-L-I-K(1,3)-GGPSSGASLRHYYNWLTRQRY-NH2.C18DA-gGlu-gGlu-gGlu-gGlu-gGlu-OEG-OEG(1,2)] | 10.40 | 7.98 | 7.58 | 9.85 | 9.31 | 9.09

More lines, now with the values ahead:

pEC50 (hGLP1R; [1]) | pEC50 (hNPY2R; [2]) | pEC50 (hNPY2R; [3]) | pEC50 (hGIPR; [4]) | pEC50 (hGIPR; [5]) | pEC50 (hGLP1R; [6]) | Substance
9.96 | 7.92 | 7.34 | 9.85 |  | 8.32 | H-Y[Aib]EGTFTSDYSI[Aib]LEKQAQ[Aib]AFVQWLIK([γGlu-γGlu-γGlu-γGlu-γGlu-C18 diacid])GGPESPASLRHYYNWLTRQRY-NH2 [Compound 12, Y-Aib-E-G-T-F-T-S-D-Y-S-I-Aib-L-E-K-Q-A-Q-Aib-A-F-V-Q-W-L-I-K(1,3)-GGPESPASLRHYYNWLTRQRY-NH2.C18DA-gGlu-gGlu-gGlu-gGlu-gGlu(1,2)]
10.10 | 7.82 |  | 9.89 | 9.05 |  | I: H-Y[Aib]EGTFTSDYSI[Aib]LEKQAQ[Aib]AFVQWLIKGGPESGASLRHYYNWLTRQRY-NH2 / II: {C18 diacid}-EEEEE[εLys] (amide I:28-II:C) [Compound 63, Y-Aib-E-G-T-F-T-S-D-Y-S-I-Aib-L-E-K-Q-A-Q-Aib-A-F-V-Q-W-L-I-K(1,3)-GGPESGASLRHYYNWLTRQRY-NH2.C18DA-E-E-E-E-E-eLys(1,2)]
10.05 | 7.72 |  | 9.62 | 8.94 |  | H-Y[Aib]EGTFTSDYSI[Aib]LEKQAQ[Aib]AFVQWLIK([εLys-γGlu-γGlu-γGlu-γGlu-γGlu-γGlu-C18 diacid])GGPSSGASLRHYYNWLTRQRY-NH2 [Compound 170, Y-Aib-E-G-T-F-T-S-D-Y-S-I-Aib-L-E-K-Q-A-Q-Aib-A-F-V-Q-W-L-I-K(1,3)-GGPSSGASLRHYYNWLTRQRY-NH2.C18DA-gGlu-gGlu-gGlu-gGlu-gGlu-gGlu-eLys(1,2)]
10.15 | 7.91 | 7.31 | 9.80 | 8.94 |  | H-Y[Aib]EGTFTSDYSI[Aib]LEKQAQ[Aib]AFVQWLIK([AEEA-AEEA-γGlu-γGlu-γGlu-γGlu-γGlu-C20 diacid])GGPESGASLRHYYNWLTRQRY-NH2 [Compound 32, Y-Aib-E-G-T-F-T-S-D-Y-S-I-Aib-L-E-K-Q-A-Q-Aib-A-F-V-Q-W-L-I-K(1,3)-GGPESGASLRHYYNWLTRQRY-NH2.C20DA-gGlu-gGlu-gGlu-gGlu-gGlu-OEG-OEG(1,2)]
9.96 | 7.99 |  | 9.77 |  |  | H-Y[Aib]EGTFTSDYSI[Aib]LEKQAQ[Aib]AFVQWLIK([γGlu-γGlu-γGlu-γGlu-γGlu-C20 diacid])GGPESPASLRHYYNWLTRQRY-NH2 [Compound 11, Y-Aib-E-G-T-F-T-S-D-Y-S-I-Aib-L-E-K-Q-A-Q-Aib-A-F-V-Q-W-L-I-K(1,3)-GGPESPASLRHYYNWLTRQRY-NH2.C20DA-gGlu-gGlu-gGlu-gGlu-gGlu(1,2)]
10.10 |  | 7.64 | 9.48 | 9.46 | 8.77 | H-Y[Aib]EGTFTSDYSI[Aib]LEKQAQ[Aib]AFVQWLIK([εLys-γGlu-γGlu-γGlu-γGlu-γGlu-C18 diacid])GGPESGASLRHYYNWLTRQRY-NH2 [Compound 60, Y-Aib-E-G-T-F-T-S-D-Y-S-I-Aib-L-E-K-Q-A-Q-Aib-A-F-V-Q-W-L-I-K(1,3)-GGPESGASLRHYYNWLTRQRY-NH2.C18DA-gGlu-gGlu-gGlu-gGlu-gGlu-eLys(1,2)]
